Where a name gives a salt, the structure may show the parent alone.

In the first experiment the test system is K^+ (ATP) channel.
Assay: not given
Particulars: cromakalim (formula A) and analogous acylamino compounds; cited from earlier work.
In the case of `CC1(C)Oc2ccc(C#N)cc2[C@@H](N2CCCC2=O)[C@@H]1O` (relative stereo) [cromakalim], the “action on ATP-sensitive K^+ channels” value was “act as openers of ATP-sensitive K^+ channels”.

Another experiment deals with T1, human IsK protein (UniProt P15382+P70057).
T1 construct: channel formed with endogenous oocyte KCNQ1; two-microelectrode voltage clamp
T1 sequence (P70057 whole entry): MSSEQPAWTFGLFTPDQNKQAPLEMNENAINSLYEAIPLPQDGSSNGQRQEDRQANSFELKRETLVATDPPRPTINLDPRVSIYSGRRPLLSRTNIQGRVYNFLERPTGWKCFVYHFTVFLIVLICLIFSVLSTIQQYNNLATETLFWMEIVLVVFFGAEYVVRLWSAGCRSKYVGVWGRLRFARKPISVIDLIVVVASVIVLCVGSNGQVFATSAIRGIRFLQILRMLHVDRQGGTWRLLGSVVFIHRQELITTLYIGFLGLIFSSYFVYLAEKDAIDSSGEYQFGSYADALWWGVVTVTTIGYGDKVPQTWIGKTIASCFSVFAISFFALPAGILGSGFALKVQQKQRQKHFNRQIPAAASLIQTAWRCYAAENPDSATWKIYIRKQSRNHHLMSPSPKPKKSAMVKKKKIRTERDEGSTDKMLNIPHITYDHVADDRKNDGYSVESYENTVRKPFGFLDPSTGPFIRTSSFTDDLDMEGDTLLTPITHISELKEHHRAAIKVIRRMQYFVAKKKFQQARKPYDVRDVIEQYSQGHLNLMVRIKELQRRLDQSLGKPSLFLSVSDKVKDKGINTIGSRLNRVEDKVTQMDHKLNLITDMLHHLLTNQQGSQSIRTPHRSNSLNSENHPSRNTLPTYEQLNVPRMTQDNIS
Description: cell-based. Particulars: human IsK expressed in Xenopus oocytes, -10 mV voltage jumps lasting 15 s, room temperature, pH 7.5; Hill equation.
Regarding `CN(CCc1ccccn1)C(=O)CN(C1CC(C)(C)Oc2ccc(OCc3ccccc3)cc21)S(C)(=O)=O` (stereo not shown) [Example 40, 2-[(6-Benzyloxy-2,2-dimethylchroman-4-yl)methanesulfonylamino]-N-methyl-N-(2-pyridin-2-yl-ethyl)acetamide hydrochloride], the IC50 is 350 nM. That is a sub-micromolar value.

With `CC1(C)CC(N(CC(=O)NCCc2ccccn2)S(C)(=O)=O)c2cc(OCc3ccccc3)ccc2O1` (stereo not shown) [Example 17, 2-[(6-Benzyloxy-2,2-dimethylchroman-4-yl)methanesulfonylamino]-N-(2-pyridin-2-yl-ethyl)acetamide], the IC50 is less than 1000 nM.

With `CCS(=O)(=O)N(CC(=O)Nc1ncccn1)C1CC(C)(C)Oc2ccc(F)cc21` (stereo not shown) [Example 24, 2-[Ethanesulfonyl-(6-fluoro-2,2-dimethylchroman-4-yl)amino]-N-pyrimidin-2-ylacetamide], the IC50 stood at 1000 nM. In other words, the single-digit micromolar range.

For `CCCCOc1ccc2c(c1)C(N(CCOCCOC)S(C)(=O)=O)CC(C)(C)O2` (stereo not shown) [Example 42, N-(6-Butoxy-2,2-dimethylchroman-4-yl)-N-[2-(2-methoxyethoxy)ethyl]methanesulfonamide], the IC50 was 340 nM.

Regarding `CCOC(=O)CN(C)C(=O)CCCN(C1CC(C)(C)Oc2ccc(OCc3ccccc3)cc21)S(C)(=O)=O` (stereo not shown) [Example 31, Ethyl ({4-[(6-benzyloxy-2,2-dimethylchroman-4-yl)methanesulfonylamino]butyryl}methylamino)acetate], half-maximal inhibition (IC50) required 280 nM. This IC50 and that of the molecule before are within 1.5-fold of each other.

Consider `COCCOCCCCN(C1CC(C)(C)Oc2ccc(OCc3ccccc3)cc21)S(C)(=O)=O` (stereo not shown) [Example 29, N-(6-Benzyloxy-2,2-dimethylchroman-4-yl)-N-[4-(2-methoxyethoxy)butyl]methanesulfonamide], for which the IC50 is less than 1000 nM.

Take `CC1(C)CC(N(CCCCOCC(=O)O)S(C)(=O)=O)c2cc(OCc3ccccc3)ccc2O1` (stereo not shown) [Example 34, {4-[(6-Benzyloxy-2,2-dimethylchroman-4-yl)methanesulfonylamino]butoxy}acetic acid]: the IC50 is roughly 700 nM.

For the molecule `CCS(=O)(=O)N(CC(=O)NCCN(C)Cc1ccccc1)C1CC(C)(C)Oc2ccc(F)cc21` (stereo not shown) [Example 62, N-[2-(Benzyl-methyl-amino)-ethyl]-2-[ethanesulfonyl-(6-fluoro-2,2-dimethyl-chroman-4-yl)-amino]-acetamide], the IC50 was less than 1000 nM.

In turn, `CCOCCOCCOC(=O)CN(C1CC(CC)(CC)Oc2ccc(C)cc21)S(=O)(=O)CC` (stereo not shown) [Example 4, 2-(2-Ethoxyethoxy)ethyl [(2,2-diethyl-6-methylchroman-4-yl)-ethylsulfonylamino]acetate] yielded an IC50 of 1000 nM. This lies in the single-digit micromolar range.

Consider `CCS(=O)(=O)N(CC(=O)Nc1cnccn1)C1CC(C)(C)Oc2ccc(F)cc21` (stereo not shown) [Example 25, 2-[Ethanesulfonyl-(6-fluoro-2,2-dimethylchroman-4-yl)amino]-N-pyrazin-2-ylacetamide], for which half-maximal inhibition (IC50) required 450 nM.

Molecule `CCCCOc1ccc2c(c1)C(N(CCCOC(=O)NCCN1CCOCC1)S(C)(=O)=O)CC(C)(C)O2` (stereo not shown) [Example 47, 3-[(6-Butoxy-2,2-dimethylchroman-4-yl)methanesulfonylamino]propyl (^2-morpholin-4-yl-ethyl)carbamate] gave a concentration for half-maximal inhibition (IC50) of 750 nM.

With `CCCCOc1ccc2c(c1)C(N(CCCOCCO)S(C)(=O)=O)CC(C)(C)O2` (stereo not shown) [Example 45, N-(6-Butoxy-2,2-dimethylchroman-4-yl)-N-[3-(2-hydroxyethoxy)propyl]methanesulfonamide], the IC50 was 450 nM.

On to `CCCCOc1ccc2c(c1)C(N(CC(=O)NC(=N)N)S(C)(=O)=O)CC(C)(C)O2` (stereo not shown) [Example 56, N-(6-Butoxy-2,2-dimethylchroman-4-yl)-N-(2-guanidino-2-oxoethyl)methanesulfonamide], for which 3400 nM corresponded to half-maximal inhibition (IC50).

As to `CCS(=O)(=O)N(CC(=O)Nc1nc2ccccc2n1C)C1CC(C)(C)Oc2ccc(F)cc21` (stereo not shown) [Example 27, 2-[Ethanesulfonyl-(6-fluoro-2,2-dimethylchroman-4-yl)amino]-N-(1-methyl-1H-benzoimidazol-2-yl)acetamide], the IC50 was found to be 2100 nM.

On to `Cc1ccc2c(c1)C(N(CCCCC(=O)OCCN(C)Cc1ccccc1)S(C)(=O)=O)CC(C)(C)O2` (stereo not shown) [Example 10, 2-(Benzylmethylamino)ethyl 5-[methanesulfonyl-(2,2,6-trimethylchroman-4-yl)amino]pentanoate], for which the IC50 is 790 nM. This IC50 is about 2.7-fold lower than that of the molecule before.

`CCS(=O)(=O)N(CC(=O)Nc1ccncc1)C1CC(C)(C)Oc2ccc(F)cc21` (stereo not shown) [Example 22, 2-[Ethanesulfonyl-(6-fluoro-2,2-dimethylchroman-4-yl)amino]-N-pyridin-4-ylacetamide] yielded an IC50 of 670 nM.

In turn, `CCS(=O)(=O)N(CC(=O)NCCc1ccccn1)C1CC(C)(C)Oc2ccc(F)cc21` (stereo not shown) [Example 9, 2-[Ethylsulfonyl-(6-fluoro-2,2-dimethylchroman-4-yl)amino]-N-(2-pyridin-2-ylethyl)acetamide] gave an IC50 of 1600 nM.

For `CCS(=O)(=O)N(CC(=O)Nc1nc2ccccc2[nH]1)C1CC(C)(C)Oc2ccc(F)cc21` (stereo not shown) [Example 61, N-(1H-Benzoimidazol-2-yl)-2-[ethanesulfonyl-(6-fluoro-2,2-dimethyl-chroman-4-yl)-amino]-acetamide], the IC50 is less than 1000 nM.

In turn, `CCCCNC(=O)CCCN(C1CC(C)(C)Oc2ccc(OCc3ccccc3)cc21)S(C)(=O)=O` (stereo not shown) [Example 28, 4-[(6-Benzyloxy-2,2-dimethylchroman-4-yl)methanesulfonylamino]-N-butylbutyramide] returned an IC50 of 470 nM.

In the case of `CCOC(=O)CN(C)C(=O)CN(C1CC(C)(C)Oc2ccc(OCc3ccccc3)cc21)S(C)(=O)=O` (stereo not shown) [Example 32, Ethyl ({2-[(6-benzyloxy-2,2-dimethylchroman-4-yl)methanesulfonylamino]acetyl}methylamino)acetate], inhibition was half-maximal at 250 nM (IC50).

In turn, `CC1(C)Oc2ccc(Cl)cc2[C@@H](N(CC(=O)NCCc2ccccc2)S(C)(=O)=O)[C@@H]1O` (relative stereo) [Example 58, 2-[(6-Chloro-3-hydroxy-2,2-dimethylchroman-4-yl)methanesulfonylamino]-N-phenethylacetamide] had an IC50 of 500 nM. This IC50 is about 2-fold higher than that of the molecule before.

The molecule `CCS(=O)(=O)N(CC(=O)OCCN(C)Cc1ccccc1)C1CC(C)(C)Oc2ccc(F)cc21` (stereo not shown) [Example 49, 2-(Benzylmethylamino)ethyl [ethanesulfonyl-(6-fluoro-2,2-dimethylchroman-4-yl)amino]acetate] showed an IC50 of 83 nM.

For the molecule `CCCCOc1ccc2c(c1)C(N(CCOCC(=O)O)S(C)(=O)=O)CC(C)(C)O2` (stereo not shown) [Example 43, {2-[(6-Butoxy-2,2-dimethylchroman-4-yl)methanesulfonylamino]ethoxy}acetic acid], 7800 nM corresponded to half-maximal inhibition (IC50).

On to `CN(CCc1ccccc1)C(=O)CN(C1CC(C)(C)Oc2ccc(OCc3ccccc3)cc21)S(C)(=O)=O` (stereo not shown) [Example 39, 2-[(6-Benzyloxy-2,2-dimethylchroman-4-yl)methanesulfonylamino]-N-methyl-N-phenethylacetamide], for which the IC50 amounted to 310 nM.

As for `CCS(=O)(=O)N(CC(=O)NCCc1ccccc1)C1CC(C)(C)Oc2ccc(F)cc21` (stereo not shown) [Example 21, 2-[Ethanesulfonyl-(6-fluoro-2,2-dimethylchroman-4-yl)amino]-N-phenethylacetamide], the IC50 was 46 nM.

`CCS(=O)(=O)N(CC(=O)Nc1cccnc1)C1CC(C)(C)Oc2ccc(F)cc21` (stereo not shown) [Example 23, 2-[Ethanesulfonyl-(6-fluoro-2,2-dimethylchroman-4-yl)-amino]N-pyridin-3-ylacetamide] registered an IC50 of 550 nM.

In turn, `CCS(=O)(=O)N(CC(=O)Nc1nc[nH]n1)C1CC(C)(C)Oc2ccc(F)cc21` (stereo not shown) [Example 54, 2-[Ethanesulfonyl-(6-fluoro-2,2-dimethylchroman-4-yl)amino]-N-(1H-[1,2,4]triazol-3-yl)acetamide] gave an IC50 of 830 nM. Compared with the last molecule, the IC50 is about 1.5-fold higher.

`CCS(=O)(=O)N(CC(=O)Nc1ccccn1)C1CC(C)(C)Oc2ccc(F)cc21` (stereo not shown) [Example 14, 2-[(6-Fluoro-2,2-dimethylchroman-4-yl)ethanesulfonylamino]-N-pyridin-2-ylacetamide] registered an IC50 of 180 nM.

`COCCOCCN(C1CC(C)(C)Oc2ccc(OCc3ccccc3)cc21)S(C)(=O)=O` (stereo not shown) [Example 38, N-(6-Benzyloxy-2,2-dimethylchroman-4-yl)-N-[2-(2-methoxyethoxy)ethyl]methanesulfonamide] displayed a concentration for half-maximal inhibition (IC50) of 1420 nM.

A further experiment relates to IKr.
Assay: not given
As to conditions: known class III antiarrhythmics; cited from earlier work.
Take `CC(C)NC[C@@H](O)c1ccc(NS(C)(=O)=O)cc1` [d-sotalol]: the “block of IKr” value is “mainly or exclusively block IKr”.

As usually defined, the IC50 is the point on the concentration scale where inhibition reaches its midpoint.
